Laboratory results published in US20240116918A1, “SUBSTITUTED TRICYCLIC COMPOUND AS PRMT5 INHIBITOR AND USE THEREOF” (NANJING SANHOME PHARMACEUTICAL CO., LTD., priority 2019, published 2024).
pIC50: −log10 of the molar value.

Key:
PRMT5 = PRMT5 (Homo sapiens (Human), UniProt O14744); experiment: In vitro evaluation of kinase activity (PRMT5 enzymatic assay, [3H]-SAM FlashPlate); type: biochemical; conditions: polypeptide substrate H4(1-21)S1ac 100 nM, [3H]-SAM 250 nM, 25° C., 60 min; read-out: Enzyme IC50 PRMT5
Chain of PRMT5 (O14744 whole entry): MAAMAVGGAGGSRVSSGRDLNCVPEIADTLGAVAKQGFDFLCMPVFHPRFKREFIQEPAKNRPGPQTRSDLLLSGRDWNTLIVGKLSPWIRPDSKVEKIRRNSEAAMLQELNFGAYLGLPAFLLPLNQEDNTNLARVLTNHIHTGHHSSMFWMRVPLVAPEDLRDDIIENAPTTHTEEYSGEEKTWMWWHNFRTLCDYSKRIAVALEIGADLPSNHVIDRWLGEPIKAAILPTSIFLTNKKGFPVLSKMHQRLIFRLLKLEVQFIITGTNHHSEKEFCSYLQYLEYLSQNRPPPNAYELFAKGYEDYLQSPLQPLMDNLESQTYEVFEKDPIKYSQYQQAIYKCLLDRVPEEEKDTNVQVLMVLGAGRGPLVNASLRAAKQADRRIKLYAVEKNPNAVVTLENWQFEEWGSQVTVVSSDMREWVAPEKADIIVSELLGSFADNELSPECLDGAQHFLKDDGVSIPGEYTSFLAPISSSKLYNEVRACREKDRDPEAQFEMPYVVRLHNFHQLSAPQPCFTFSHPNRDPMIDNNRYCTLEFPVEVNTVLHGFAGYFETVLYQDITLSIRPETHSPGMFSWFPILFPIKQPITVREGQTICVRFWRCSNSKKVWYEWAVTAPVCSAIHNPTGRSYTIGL
Chain of PRMT5 (Q9BQA1 whole entry partner): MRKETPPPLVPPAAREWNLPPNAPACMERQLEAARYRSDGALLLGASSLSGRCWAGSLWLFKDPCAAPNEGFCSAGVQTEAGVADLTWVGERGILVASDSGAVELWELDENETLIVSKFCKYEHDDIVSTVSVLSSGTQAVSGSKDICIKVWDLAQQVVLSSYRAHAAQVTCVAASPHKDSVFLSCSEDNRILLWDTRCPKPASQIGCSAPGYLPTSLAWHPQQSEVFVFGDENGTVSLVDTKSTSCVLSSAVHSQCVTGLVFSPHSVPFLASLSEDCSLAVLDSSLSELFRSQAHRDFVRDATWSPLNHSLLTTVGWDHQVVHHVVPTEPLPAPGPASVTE
Description: Compounds: the compounds of the present invention prepared in the above examples. Each compound was formulated into a 10 mM stock solution with DMSO, and finally diluted into 10 concentrations for detection, with the final concentrations being 10000.00 nM, 3333.33 nM, 1111.11 nM, 370.37 nM, 123.46 nM, 41.15 nM, 13.72 nM, 4.57 nM, 1.52 nM, and 0.51 nM.
Reagents and consumables: PRMTS, purchased from Active Motif, Cat. No. 31921; polypeptide substrate H4(1-21)S1ac, purchased from Gill Biochemical (Shanghai) Co., Ltd., Cat. No. 342095; [^3H]-SAM, purchased From PerkinElmer, Cat. No. NET155V001MC; SAM, purchased from Sigma, Cat. No. A7007-100MG; SAH, purchased from Sigma, Cat. No. A9384-25MG; DTT, purchased from Sangon Bioengineering (Shanghai) Co., Ltd., Cat. No. A620058-0005. Corning-3657, purchased from Corning, Cat. No. 3657; Echo Qualified 384-Well, purchased from Labcyte, Cat. No. P-05525; FlashPlate, purchased from Perkin Elmer, Cat. No. SMP410J001PK.
2.1. Preparation of reaction buffer and reaction stop solution: the composition of 1× reaction buffer was 10 mM Tris-HCl, pH 8.0; 0.01% Tween-20; and 1 mM DTT. The composition of the reaction stop solution was 125 μM […] solution.
The compounds were dissolved in 100% DMSO to prepare 10 mM stock solutions and then diluted to desired concentrations on an Echo 384 well plate.
250 nL of the compounds diluted above were transferred from the Echo 384 well plate to a 384 well reaction plate using the Echo550 instrument.
PRMT5 was added to 1× reaction buffer to form 1.67× enzyme solution.
The polypeptide substrate and [^3H]-SAM were added to 1× reaction buffer to form 2.5× substrate solution (the final concentrations were 100 nM and 250 nM, respectively).
15 μL of 1.67× enzyme solution was added to the wells of a 384 well reaction plate. For control wells without enzymatic activity, the enzyme solution was replaced with 15 μL of 1× reaction buffer. The plate was centrifuged at 1000 rpm for 1 min and incubated at room temperature for 15 min. […]

hERG potassium channel = hERG potassium channel (Homo sapiens (Human), UniProt Q12809)
Chain of hERG potassium channel (Q12809 whole entry): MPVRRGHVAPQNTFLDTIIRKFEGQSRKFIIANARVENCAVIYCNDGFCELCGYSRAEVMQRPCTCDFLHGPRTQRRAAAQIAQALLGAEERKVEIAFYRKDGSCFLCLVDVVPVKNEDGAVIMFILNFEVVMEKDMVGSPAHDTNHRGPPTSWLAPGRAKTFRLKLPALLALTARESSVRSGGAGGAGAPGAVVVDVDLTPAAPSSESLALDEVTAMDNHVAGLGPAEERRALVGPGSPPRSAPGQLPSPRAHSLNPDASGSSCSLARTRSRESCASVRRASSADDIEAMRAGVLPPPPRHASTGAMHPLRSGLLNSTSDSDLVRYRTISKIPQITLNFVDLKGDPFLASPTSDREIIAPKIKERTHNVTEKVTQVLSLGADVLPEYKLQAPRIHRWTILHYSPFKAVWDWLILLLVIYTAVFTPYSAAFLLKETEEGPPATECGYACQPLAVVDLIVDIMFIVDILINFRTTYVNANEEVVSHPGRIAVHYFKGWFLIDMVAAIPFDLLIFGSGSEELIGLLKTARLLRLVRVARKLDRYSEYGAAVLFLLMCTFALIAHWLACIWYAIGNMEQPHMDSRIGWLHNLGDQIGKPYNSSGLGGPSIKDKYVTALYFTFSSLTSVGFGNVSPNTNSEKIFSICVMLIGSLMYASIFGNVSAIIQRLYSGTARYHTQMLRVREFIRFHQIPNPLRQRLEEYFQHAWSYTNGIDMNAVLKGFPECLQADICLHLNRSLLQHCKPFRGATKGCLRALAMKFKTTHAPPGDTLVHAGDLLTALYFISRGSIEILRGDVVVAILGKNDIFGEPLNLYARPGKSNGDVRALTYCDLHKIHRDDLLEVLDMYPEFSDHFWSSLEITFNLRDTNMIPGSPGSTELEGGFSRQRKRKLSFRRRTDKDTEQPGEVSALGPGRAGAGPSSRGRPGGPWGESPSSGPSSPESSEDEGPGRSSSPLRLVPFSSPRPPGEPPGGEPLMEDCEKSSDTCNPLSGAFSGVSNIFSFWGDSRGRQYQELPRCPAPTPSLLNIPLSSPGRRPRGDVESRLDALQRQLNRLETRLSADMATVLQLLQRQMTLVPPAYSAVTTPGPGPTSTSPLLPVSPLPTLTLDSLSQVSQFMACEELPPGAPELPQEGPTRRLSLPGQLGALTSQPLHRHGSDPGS
Description: Preparation of test solvents: preparation of extracellular fluid (mM): 137 NaCl, 4 KCl, 1.8 CaCl2, 1 MgCl2, 10 glucose and 10 HEPES (pH 7.4); preparation of intracellular fluid (mM): 130 KCl, 1 MgCl2, 5 EGTA, 5 MgATP and 10 HEPES (pH 7.2); preparation of negative control: extracellular fluid+0.3% DMSO; positive control: quinidine.
Compound treatment: The compound was weighed and dissolved in DMSO to prepare a 10 mM stock solution, which was diluted with DMSO to form secondary stock solutions with concentrations of 3.3, 1.1, 0.37 and 0.12 mM. 90 μL each of the stock solution and the secondary stock solutions was diluted into 30 mL of extracellular fluid for electrophysiological detection. The final concentrations of the compound were 30, 10, 3.3, 1.1 and 0.37 μM, and the final concentration of DMSO was 3:1000.
Stably transfected cell culture: The cell line was originated from HEK-293 cells overexpressing hERG potassium ion channel. […] The cells were cultured in an incubator at 37° C. and 5% CO2. When the cell density reaches 80% of the petri dish, the cells were first pre-washed with phosphate buffered saline (PBS), then digested with trypsin/EDTA for 2-3 min. Cell culture medium was added to stop the digestion. The cells were gently blown down and transferred to a centrifuge tube, and centrifuged at 1000 rpm for 3 min. The supernatant was discarded, cell culture medium was added, and the cells were mixed uniformly by gentle tapping. After that, the mixture was transferred to a petri dish for subculture, or the cells were dripped on a round glass slide and placed on a petri dish for the cells to adhere for experiments.
Experiments on electrophysiological manual patch-clamp system: The stably transfected cells were inoculated on a glass slide with a cell density lower than 50%, and cultured overnight. The experimental cells were transferred to a bath of about 1 mL embedded in an inverted microscope platform, and the extracellular fluid was perfused at a perfusion rate of 2.7 mL/min. After 5 minutes of stabilization, the experiment was started. Membrane currents were recorded using HEKA EPC-10 patch clamp amplifier and [sequence] acquisition system. All the experiments were performed at room temperature (22-24° C.). Electrodes were drawn straight using P-97 microelectrode drawing instrument (BF150-110-10) in the experiments. The inner diameter of the electrode was 1-1.5 mm, and the pipette resistance after filling with the inner liquid was 2-4 MΩ. The electrophysiological stimulation scheme of hERG potassium channel included: first setting the membrane voltage at −80 mV, applying a stimulation to the cells at +20 mV voltage for 2 s to activate the hERG potassium channel, and then repolarizing to −50 mV for 5 s to generate an outward tail current. The stimulation frequency was once every 15 s. The current value was the peak value of the tail current. The channel currents were recorded in the whole-cell recording mode. Firstly, the extracellular fluid was perfused (about 2 mL per minute) while recording was continued. When the current was stabilized (the current decay (Run-Down) was less than 5% within 5 minutes), the peak value of the tail current was the control current value. Then, the extracellular fluid containing the drug to be tested was perfused while the recording was continued until the inhibitory effect of the drug on the hERG current reached a steady state. At this time, the peak value of the tail current was the current value after drug addition. […]

SMILES | pIC50 (PRMT5) | inhibitory effect on the hERG potassium channel (in words) (hERG potassium channel)
CC(=O)N1CCC(Nc2cc3c(cn2)C2(CC2)CN(C[C@H](O)CN2CCc4ccccc4C2)C3=O)CC1 [Example 1, (R)-7′-((1-acetylpiperidin-4-yl)amino)-2′-(3-(3,4-dihydroisoquinolin-2(1H)-yl)-2-hydroxypropyl)-2′,3′-dihydro-1′H-spiro[cyclopropane-1,4′-[2,6]naphthyridin]-1′-one] | 7.49 | –
CC(=O)N1CC2(CC(Nc3cc4c(cn3)C3(CC3)CN(C[C@H](O)CN3CCc5ccccc5C3)C4=O)C2)C1 [Example 2, (R)-7′-((2-acetyl-2-azaspiro[3.3]hept-6-yl)amino)-2′-(3-(3,4-dihydroisoquinolin-2(1H)-yl)-2-hydroxypropyl)-2′,3′-dihydro-1′H-spiro[cyclopropane-1,4′-[2,6]naphthyridin]-1-one] | 7.30 | weak inhibitory effect
